Common to all, as to format: in vivo
Test [1] concerns barnyardgrass (Echinochloa crus-galli). The experiment in a line: Test A pre-/postemergence: barnyardgrass. As to conditions: Echinochloa crus-galli, 240 h; for pest or weed control at 125 g/ha: 125 g ai/ha; for pest or weed control at 500 g/ha: 500 g ai/ha. The method in brief:
(§1)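 Seeds were sown in loam/sand blend and sprayed preemergence (directed soil spray) and, simultaneously, postemergence at 2–10 cm, one- to two-leaf stage, using compounds in non-phytotoxic solvent with surfactant. After ~10 days in greenhouse, injury was rated visually versus untreated controls, 0 (no effect) to 100 (complete control).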

For test [2], the system named is wheat (Triticum aestivum). The experiment in a line: Test A pre-/postemergence: wheat. As to conditions: Triticum aestivum, 240 h; for plant injury at 125 g/ha: 125 g ai/ha; for plant injury at 500 g/ha: 500 g ai/ha. The method in brief:
as §1

For test [3], the system named is crabgrass, large (large crabgrass, Digitaria sanguinalis). The experiment in a line: Test A pre-/postemergence: crabgrass, large. Particulars: Digitaria sanguinalis, 240 h; for pest or weed control at 125 g/ha: 125 g ai/ha; for pest or weed control at 500 g/ha: 500 g ai/ha. An outline of the steps:
as §1

Test [4] has as its system pigweed (Amaranthus retroflexus). The experiment in a line: Test A pre-/postemergence: pigweed. Particulars: Amaranthus retroflexus, 240 h; for pest or weed control at 125 g/ha: 125 g ai/ha; for pest or weed control at 500 g/ha: 500 g ai/ha. The method in brief: as §1
Where [5] appears, read: post-emergence, Postemergence, 0 to 100 scale, 0 is no effect, 100 is complete control, read-out: Barnyardgrass plant response rating.
Setting [6] is: post-emergence, Postemergence, visual rating on 0 to 100 scale (0 no effect, 100 complete control), approximately ten days, read-out: Barnyardgrass plant response rating.
The mark [7] stands for this setting: pre-emergence, Preemergence, 0 to 100 scale (0 no effect, 100 complete control), read-out: Plant response rating, Barnyardgrass.
Where [8] appears, read: pre-emergence, Preemergence, 0 to 100 scale, 0 is no effect, 100 is complete control, read-out: Plant response rating, Barnyardgrass.
[9] abbreviates: post-emergence, Postemergence, 0 to 100 scale, 0 is no effect, 100 is complete control, read-out: Wheat plant response rating.
Where [10] appears, read: post-emergence, Postemergence, visual rating on 0 to 100 scale (0 no effect, 100 complete control), approximately ten days, read-out: Wheat plant response rating.
The mark [11] stands for this setting: pre-emergence, Preemergence, 0 to 100 scale (0 no effect, 100 complete control), read-out: Plant response rating, Wheat.
The mark [12] stands for this setting: pre-emergence, Preemergence, 0 to 100 scale, 0 is no effect, 100 is complete control, read-out: Plant response rating, Wheat.
[13] abbreviates: post-emergence, Postemergence, 0 to 100 scale, 0 is no effect, 100 is complete control, read-out: Crabgrass, Large plant response rating.
Setting [14] is: post-emergence, Postemergence, visual rating on 0 to 100 scale (0 no effect, 100 complete control), approximately ten days, read-out: Crabgrass, Large plant response rating.
Setting [15] is: pre-emergence, Preemergence, 0 to 100 scale (0 no effect, 100 complete control), read-out: Plant response rating, Crabgrass, Large.
The mark [16] stands for this setting: pre-emergence, Preemergence, 0 to 100 scale, 0 is no effect, 100 is complete control, read-out: Plant response rating, Crabgrass, Large.
Setting [17] is: post-emergence, Postemergence, 0 to 100 scale, 0 is no effect, 100 is complete control, read-out: Pigweed plant response rating.
Setting [18] is: post-emergence, Postemergence, visual rating on 0 to 100 scale (0 no effect, 100 complete control), approximately ten days, read-out: Pigweed plant response rating.
Setting [19] is: pre-emergence, Preemergence, 0 to 100 scale (0 no effect, 100 complete control), read-out: Plant response rating, Pigweed.
[20] abbreviates: pre-emergence, Preemergence, 0 to 100 scale, 0 is no effect, 100 is complete control, read-out: Plant response rating, Pigweed.
Where [21] appears, read: pre-emergence, Preemergence, 0 to 100 scale where 0 is no effect and 100 is complete control, read-out: Plant response rating, Barnyardgrass.
Setting [22] is: pre-emergence, Preemergence, 0 to 100 scale where 0 is no effect and 100 is complete control, read-out: Plant response rating, Wheat.
Where [23] appears, read: pre-emergence, Preemergence, 0 to 100 scale where 0 is no effect and 100 is complete control, read-out: Plant response rating, Crabgrass, Large.
Where [24] appears, read: pre-emergence, Preemergence, 0 to 100 scale where 0 is no effect and 100 is complete control, read-out: Plant response rating, Pigweed.

Read-outs that look alike come from different tables or passages of the source.

Take `Cc1nn(-c2ccc(F)cc2F)nc1Cc1ccnc(C(F)(F)F)c1` [Compound 54, 4-[[2-(2,4-difluorophenyl)-5-methyl-2H-1,2,3-triazol-4-yl]methyl]-2-(trifluoromethyl)pyridine]: the pest or weed control at 125 g/ha came to 70% in test [1] (setting [5]); 80% in test [1] (setting [7]); 80% in test [3] (setting [13]); 100% in test [3] (setting [15]); 100% in test [4] (setting [17]); 100% in test [4] (setting [19]). Besides, the pest or weed control at 500 g/ha in test [1] (setting [6]) amounted to 90%; in test [1] (setting [8]), 100%; in test [3] (setting [14]), 90%; in test [3] (setting [16]), 100%; in test [4] (setting [18]), 100%; in test [4] (setting [20]), 100%. Besides, the plant injury at 125 g/ha in test [2] (setting [9]) turned out to be 20%; in test [2] (setting [11]), 10%. Moreover, the plant injury at 500 g/ha in test [2] (setting [10]) and in test [2] (setting [12]) was 30% throughout.

`Cc1nn(-c2ccc(C(F)(F)F)cc2)nc1Oc1csc(C(F)(F)F)c1` [Compound 1, 4-methyl-2-[4-(trifluoromethyl)phenyl]-5-[[5-(trifluoromethyl)-3-thienyl]oxy]-2H-1,2,3-triazole]: the pest or weed control at 125 g/ha in test [1] (setting [5]) was determined as 0%; in test [1] (setting [7]), 20%; in test [3] (setting [13]), 70%; in test [3] (setting [15]), 70%; in test [4] (setting [17]) it was 90%; in test [4] (setting [19]), 60%. The pest or weed control at 500 g/ha in test [1] (setting [6]) amounted to 20%; in test [1] (setting [8]) it was 50%; in test [3] (setting [14]), 90%; in test [3] (setting [16]) it was 100%; in test [4] (setting [18]), 100%; in test [4] (setting [20]) it was 90%. The plant injury at 125 g/ha in test [2] (setting [9]) is 10%; in test [2] (setting [11]), 0%. Moreover, the plant injury at 500 g/ha in test [2] (setting [10]) was 20%; in test [2] (setting [12]), 0%.

On to `FCc1nn(-c2ccc(C(F)(F)F)cc2)nc1Oc1cccc(OC(F)(F)F)c1` [Compound 116, 4-(fluoromethyl)-5-[3-(trifluoromethoxy)phenoxy]-2-[4-(trifluoromethyl)phenyl]-2H-1,2,3-triazole], for which the pest or weed control at 125 g/ha in test [1] (setting [5]) was 10%; in test [1] (setting [21]), 0%; in test [3] (setting [13]), 40%; in test [3] (setting [23]), 70%; in test [4] (setting [17]), 50%; in test [4] (setting [24]), 50%. Further, the pest or weed control at 500 g/ha in test [1] (setting [6]) amounted to 20%; in test [1] (setting [7]), 30%; in test [3] (setting [14]), 80%; in test [3] (setting [15]), 100%; in test [4] (setting [18]), 100%; in test [4] (setting [19]), 100%. Also, the plant injury at 125 g/ha is 10% in test [2] (setting [9]) and 0% in test [2] (setting [22]). For the same molecule, the plant injury at 500 g/ha in test [2] (setting [10]) and in test [2] (setting [11]) was 10% throughout.

On to `COCc1nn(-c2ccc(C(F)(F)F)cc2)nc1Oc1cccc(OC(F)(F)F)c1` [Compound 115, 4-(methoxymethyl)-5-[3-(trifluoromethoxy)phenoxy]-2-[4-(trifluoromethyl)phenyl]-2H-1,2,3-triazole], for which the pest or weed control at 125 g/ha in test [1] (setting [5]) amounted to 20%; in test [1] (setting [21]), 30%; in test [3] (setting [13]), 50%; in test [3] (setting [23]), 80%; in test [4] (setting [17]), 80%; in test [4] (setting [24]), 100%. In addition, the pest or weed control at 500 g/ha in test [1] (setting [6]) turned out to be 30%; in test [1] (setting [7]), 60%; in test [3] (setting [14]), 80%; in test [3] (setting [15]) it was 100%; in test [4] (setting [18]) it was 100%; in test [4] (setting [19]), 100%. In addition, the results for the plant injury at 125 g/ha in test [2] (setting [9]) and in test [2] (setting [22]) were 10% and 0%, respectively. The plant injury at 500 g/ha is 20% in test [2] (setting [10]) and 10% in test [2] (setting [11]).

The values above are taken from patent publication US9302999B2, “Substituted triazoles as herbicides” (E. I. DU PONT DE NEMOURS AND COMPANY, priority 2012, dated 2016).
